Molecules are shown by their SMILES. Structures can show the parent of a compound that is named as a salt.

In general, IC50 refers to the point on the concentration scale where inhibition reaches its midpoint. Low readings indicate greater potency, high ones weaker potency.

For the experiment, the target named is T1, calmodulin-dependent cGMP-phosphodiesterase (CaM-PDE) (Sus scrofa, UniProt A0A5G2RLV3).
T1 construct: prepared from swine aorta; from tissue; host or cells: swine aorta
The experiment in a line: enzyme-inhibitory activity with calmodulin-dependent cGMP-phosphodiesterase (CaM-PDE) obtained from swine aorta. It is filed as biochemical. Particulars: 1 μM cGMP as substrate, 1 mM Ca++, calmodulin 250 U/ml, DMSO 4% or below. As to the method: Study on enzyme-inhibitory activity with calmodulin-dependent cGMP-phosphodiesterase obtained from swine aorta The enzyme activity of calmodulin-dependent cGMP-phosphodiesterase (hereinafter referred to CaM-PDE) prepared from swine aorta was determined according to the method of Thompson et al. The emzyme activity was determined in the presence of 1 mM of calcium ion (Ca^++) and calmodulin (250 U/ml) by the use of 1 μM of cGMP as the substrate. The compound of the present invention was dissolved in DMSO and added to the reaction liquid. The final concentration of DMSO in the reaction solution was adjusted to 4% or below. The preparation of the CaM-PDE was effected according to the method [[…]. and Saito, I., Isolation of cyclic nucleotide phosphodiesterase isozymes from pig aorta, Biochem. Pharmacol. in press] by the use of swine aorta. The CaM-PDE inhibitory activity of the compounds of the present invention as determined by the above method are given in Table 1.
As to `COc1cc2c(NCCCC(=O)O)ncnc2c(OC)c1OC` [Example 2, 4-(3-Carboxypropyl)amino-6,7,8-trimethoxyquinazoline], the IC50 came out at 0.48 µM.

Take `CCOC(=O)CCCCCNc1ncnc2c(OC)c(OC)c(OC)cc12` [Example 3, 4-(5-Ethoxycarbonylpentyl)amino-6,7,8-trimethoxyquinazoline]: the IC50 worked out at 2.35 µM.

The compound `CCOC(=O)CCNc1ncnc2c(OC)c(OC)c(OC)cc12` [Example 7, 4-(2-Ethoxycarbonylethyl)amino-6,7,8-trimethoxyquinazoline] showed an IC50 of 4.62 µM.

Compound `O=C(O)CCCCCNc1ncnc2ccc(Cl)cc12` [Example 10, 4-(5-Carboxypentyl)amino-6-chloroquinazolne] yielded an IC50 of 53.9 µM.

Regarding `COc1cc2c(NCCCCCCC(=O)O)ncnc2c(OC)c1OC` [Example 12, 4-(6-Carboxyhexyl)amino-6,7,8-trimethoxyquinazoline], the IC50 amounted to 3.5 µM.

In turn, `COc1cc2c(NCCC(=O)O)ncnc2c(OC)c1OC` [Example 13, 4-(2-Carboxyethyl)amino-6,7,8-trimethoxyquinazoline] returned a concentration for half-maximal inhibition (IC50) of 2.37 µM.

Take `COc1cc2c(NCCCCC(=O)O)ncnc2c(OC)c1OC` [Example 14, 4-(4-Carboxybutyl)amino-6,7,8-trimethoxyuinazoline]: half-maximal inhibition (IC50) required 1.29 µM.

On to `COc1cc2c(NCCCCCCCC(=O)O)ncnc2c(OC)c1OC` [Example 15, 4-(7-Carboxyheptyl)amino-6,7,8,-trimethoxyquinazoline], for which the IC50 was 3.62 µM.

Compound `COc1cc2c(NCCCCCC(=O)O)ncnc2c(OC)c1OC` [Example 16, 4-(5-Carboxypentyl)amino-6,7,8-trimethoxyquinazoline] registered an IC50 of 1.65 µM.

The compound `COc1cc2c(N(C)CCCC(=O)O)ncnc2c(OC)c1OC` [Example 18, 4-[N-(3-Carboxypropyl)-N-methylaminol-]6,7,8, -trimethoxyquinazoline] gave an IC50 of 0.73 µM.

In the case of `COc1cc2c(N3CCC(C(=O)O)CC3)ncnc2c(OC)c1OC` [Example 20, 4-(4-Carboxypiperidino)-6,7,8-trimethoxyquinazoline], the IC50 was 0.42 µM.

Take `COc1cc2c(NCCCCC#N)ncnc2c(OC)c1OC` [Example 32, 4-(4-Cyanobutyl)amino-6,7,8-trimethoxyquinzaoline]: half-maximal inhibition (IC50) was put at 6.4 µM.

Compound `COc1cc2c(NCCCO)ncnc2c(OC)c1OC` [Example 35, 4-(3-Hydroxypropyl)amino-6,7.8-trimethoxyquinazoline] displayed an IC50 of 1.9 µM.

`Clc1ccc2ncnc(NCCCn3ccnc3)c2c1` [Example 38, 6-Chloro-4-[3-(imidazol-1-yl)propyl]aminoquinazoline] displayed a half-inhibitory concentration (IC50) of 7.9 µM.

As to `CCCNc1ncnc2c(OC)c(OC)c(OC)cc12` [Example 40, 4-Propylamino-6,7-trimethoxyquinazoline], half-maximal inhibition (IC50) was put at 0.17 µM.

Compound `CCN(CC)c1ncnc2c(OC)c(OC)c(OC)cc12` [Example 41, 4-Diethylamino-6,7,8-trimethoxyquinazoline hydrochloride] displayed an IC50 of 0.3 µM.

`CCN(CC)c1ncnc2c(OC)cc(OC)cc12` [Example 43, 4-Diethylamino-6,8-dimethoxyquinazoline hydrochloride]: the half-maximal inhibitory concentration (IC50) was 0.74 µM.

The compound `CCN(CC)c1nc(Cl)nc2c(OC)c(OC)c(OC)cc12` [Example 51, 2-Chloro-4-diethylamino-6,7,8-trimethoxyquinazoline] displayed an IC50 of 4.3 µM.

`COc1cc2c(N3CCC(C(=O)c4ccc(F)cc4)CC3)ncnc2c(OC)c1OC` [Example 57, 4-[4-(4-Fluorobenzoyl)piperidino]-6,7,8-trimethoxyquinazoline] yielded an IC50 of 11.6 µM.

In the case of `COc1cc2c(N3CCC(C(O)c4ccc(F)cc4)CC3)ncnc2c(OC)c1OC` (stereo not drawn) [Example 58, 4-[4-(4-Fluoro-α-hydroxybenzyl)piperidino]-6,7,8-trimethoxyquinazolin], inhibition was half-maximal at 2.8 µM (IC50).

For `COc1cc2c(N3CCC(=O)CC3)ncnc2c(OC)c1OC` [Example 61, 4-(4-Oxopiperidino)-6,7,8-trimethoxyquinazoline], half-maximal inhibition (IC50) was put at 1.1 µM.

For the compound `COc1cc2c(N3CCC(O)CC3)ncnc2c(OC)c1OC` [Example 62, 4-(4-Hydroxypiperidino)-6,7,8-trimethoxyquinazoline], half-maximal inhibition (IC50) was put at 0.74 µM.

Compound `COc1cc2c(N3CCN(c4ncccn4)CC3)ncnc2c(OC)c1OC` [Example 65, 4-[4-(2-Pyrimidyl)piperazin-1-yl]-6,7,8-trimethoxyquinazoline] came in with an IC50 of 10.7 µM.

Take `COc1cc2c(N3CCOCC3)ncnc2c(OC)c1OC` [Example 68, 4-Morpholino-6,7,8-trimethoxyquinazoline hydrochloride]: half-maximal inhibition (IC50) was put at 4 µM.
